# Source: patent publication US20240366589A1, “NHE3-BINDING COMPOUNDS AND METHODS FOR INHIBITING PHOSPHATE TRANSPORT” (Ardelyx, Inc., priority 2013, published 2024)
# Read-outs that look alike come from different tables or passages of the source.
# What was measured:
# Rat NHE3 = target: T1, Rat NHE3 (Rattus norvegicus, UniProt P26433); assay: Cell-based NHE3 activity under prompt conditions (OK cells, BCECF pH recovery), rat NHE3; conditions: for Rat NHE3 pIC50 Prompt: Table E5, 001 free base, 002-005 dihydrochloride salt; for Prompt Rat NHE3 pIC50 / IC50: prompt conditions; for IC50: read-out: Prompt Rat NHE3 pIC50 (converted)
# T1 construct: expressed in transfected cells; host or cells: Opossum kidney (OK) cells (ATCC), electroporation
# T1 sequence (P26433 29-831): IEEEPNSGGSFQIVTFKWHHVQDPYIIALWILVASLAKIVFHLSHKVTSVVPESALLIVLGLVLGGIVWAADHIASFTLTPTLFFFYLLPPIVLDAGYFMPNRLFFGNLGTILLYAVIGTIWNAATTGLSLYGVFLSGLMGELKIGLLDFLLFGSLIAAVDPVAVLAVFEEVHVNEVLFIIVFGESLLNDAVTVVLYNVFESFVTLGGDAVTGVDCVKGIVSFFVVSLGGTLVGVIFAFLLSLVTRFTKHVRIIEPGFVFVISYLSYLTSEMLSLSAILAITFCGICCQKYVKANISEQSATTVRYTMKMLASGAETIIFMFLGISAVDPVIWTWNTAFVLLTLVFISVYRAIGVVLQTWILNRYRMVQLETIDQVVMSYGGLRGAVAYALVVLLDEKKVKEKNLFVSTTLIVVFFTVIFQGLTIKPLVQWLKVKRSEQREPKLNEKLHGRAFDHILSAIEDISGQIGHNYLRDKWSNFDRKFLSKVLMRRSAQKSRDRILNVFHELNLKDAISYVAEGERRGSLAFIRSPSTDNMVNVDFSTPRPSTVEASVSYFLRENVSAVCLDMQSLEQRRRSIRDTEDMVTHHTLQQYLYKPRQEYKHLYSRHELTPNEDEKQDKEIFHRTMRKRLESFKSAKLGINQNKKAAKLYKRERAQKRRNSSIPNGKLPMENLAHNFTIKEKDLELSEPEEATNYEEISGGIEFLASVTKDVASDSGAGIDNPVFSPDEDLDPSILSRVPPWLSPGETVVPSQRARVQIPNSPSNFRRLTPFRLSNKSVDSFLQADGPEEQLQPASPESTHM
# How it was run: (§1)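 OK cells electroporated with rat or human NHE3 were loaded with 5 μM BCECF-AM in NH4Cl-HEPES (pH 7.4) for 30 min at room temperature, then acid-loaded 10 min in Na+-free choline-HEPES.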
# Human NHE3 [1] = target: T2, Human NHE3 (Homo sapiens, UniProt P48764); assay: Cell-based NHE3 activity under prompt conditions (OK cells, BCECF pH recovery), human NHE3; conditions: for pIC50 Prompt: Table E6, NHE3 species not stated
# T2 construct: expressed in transfected cells; host or cells: Opossum kidney (OK) cells (ATCC), electroporation
# T2 sequence (P48764 26-834): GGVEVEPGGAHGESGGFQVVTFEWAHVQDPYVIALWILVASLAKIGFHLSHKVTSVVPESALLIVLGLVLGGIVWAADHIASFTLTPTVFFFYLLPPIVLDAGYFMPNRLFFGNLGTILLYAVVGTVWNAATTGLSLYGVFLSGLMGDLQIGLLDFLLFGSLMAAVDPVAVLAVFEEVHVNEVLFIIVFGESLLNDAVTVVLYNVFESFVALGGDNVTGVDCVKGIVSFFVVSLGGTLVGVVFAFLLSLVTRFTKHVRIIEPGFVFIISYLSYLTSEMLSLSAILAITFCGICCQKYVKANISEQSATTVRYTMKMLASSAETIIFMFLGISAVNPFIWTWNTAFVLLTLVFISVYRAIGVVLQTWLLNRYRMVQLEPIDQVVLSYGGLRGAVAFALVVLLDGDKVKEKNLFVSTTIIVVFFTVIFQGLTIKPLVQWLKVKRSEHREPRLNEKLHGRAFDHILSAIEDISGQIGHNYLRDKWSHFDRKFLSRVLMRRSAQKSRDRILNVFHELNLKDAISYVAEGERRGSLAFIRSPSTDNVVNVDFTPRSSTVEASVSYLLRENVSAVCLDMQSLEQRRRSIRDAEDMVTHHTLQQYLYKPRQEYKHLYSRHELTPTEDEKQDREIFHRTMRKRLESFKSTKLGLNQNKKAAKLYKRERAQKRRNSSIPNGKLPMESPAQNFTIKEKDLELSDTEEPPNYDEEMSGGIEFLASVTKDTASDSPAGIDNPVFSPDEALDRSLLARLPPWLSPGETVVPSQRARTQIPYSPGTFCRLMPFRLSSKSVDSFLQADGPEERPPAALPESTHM
# How it was run: as §1
# Human NHE3 [2] = target: T2, Human NHE3; assay: Cell-based NHE3 activity under persistent conditions (60 min incubation, washout), human NHE3; conditions: Table E5; dihydrochloride salt
# [3] = tested on: absorption of sodium from the intestinal lumen; assay: Inhibition of intestinal sodium absorption: urinary sodium (uNa) 16 h after single oral dose in rats; format: in vivo, rat; conditions: for UNa (%): urinary Na excretion as % of vehicle; for Urine Na % of control: oral gavage, 16 h post-dose
# How it was run: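 Eight-week-old Sprague-Dawley rats (n=6) given single oral gavage of compound or water vehicle in the late afternoon, then kept in metabolic cages with chow and water ad libitum. Urine collected over 16 h; sodium quantified by ion chromatography and expressed as % of vehicle mean, compared by one-way ANOVA with Dunnett's test.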
# [4] = tested on: absorption of sodium from the intestinal lumen; assay: Fecal form score (FFS) 16 h after oral dose in rats; format: in vivo, rat; conditions: for Fecal Form Score average: oral gavage, 16 h post-dose, scale 1-5
# How it was run: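 Eight-week-old Sprague-Dawley rats (n=6) dosed by oral gavage with compound or water vehicle between 4 and 5 PM, then housed in metabolic cages with food and water ad libitum. At 16 h, fecal form scored 1 (normal pellet) to 5 (liquid streams) by two observers; group mean reported.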
# [5] = tested on: intestinal phosphate uptake; assay: Pharmacodynamic study with 33P oral challenge in normal function rats; format: in vivo, rat; conditions: 10 mg/kg; for Pi uptake after 33P oral challenge: 8 mM Pi with 33P, dihydrochloride salts, FIG. 1A
# Procedure: The compounds identified as Cpds 003, 004, and 005 (from Table E4, as their dihydrochloride salts) were tested for the ability to block intestinal phosphate uptake in rats. Rats were orally challenged with dosing solutions composed of 5 ml/kg (˜1.3 ml) of 8 mM Pi with ^33P and +/−10 mg/kg of test compound. Also included were dosing solutions further composed of either (i) 75 mM glucose+4 mM Ca or (ii) 4 mM Ca.
# [6] = tested on: phosphorus and calcium levels in the urine of rats; assay: Urinary excretion of phosphate and calcium in rats (16 h overnight urine); format: in vivo, rat; conditions: rats, oral gavage, 16 h post-dose
# [7] = prompt conditions, read-out: Prompt Human NHE3 pIC50 (converted)
Compound,Prompt Rat NHE3 pIC50 (Rat NHE3),Prompt Human NHE3 pIC50 (Human NHE3 [1]; prompt conditions),Urine Na % of control ([3]; dose 3 mg/kg) [%],Urine Na % of control ([3]; dose 10 mg/kg) [%],Fecal Form Score average ([4]; dose 3 mg/kg),Fecal Form Score average ([4]; dose 10 mg/kg),Urine P % of control ([6]; dose 3 mg/kg) [%],Urine P % of control ([6]; dose 10 mg/kg) [%],further results
CN1Cc2c(Cl)cc(Cl)cc2[C@H](c2cccc(S(=O)(=O)NCCOCCOCCNC(=O)Nc3ccc(NC(=O)NCCOCCOCCNS(=O)(=O)c4cccc([C@@H]5CN(C)Cc6c(Cl)cc(Cl)cc65)c4)cc3)c2)C1 [Cpd 003],,,,,,,,,"Rat NHE3 pIC50 Prompt (Rat NHE3): 8.6; Human NHE3 pIC50 Prompt (Human NHE3 [1]; Table E5, 001 free base, 002-005 dihydrochloride salt): 8; pIC50 Prompt (Human NHE3 [1]): 8; Human NHE3 pIC50 Persistent (Human NHE3 [2]): 8.1; effect on urinary Na (UNa) ([3]; in words): significant reduction in UNa; UNa (%) ([3]; single oral dose 1 mg/kg): 22 @ 1 mg/kg %; effect on fecal form ([4]; in words): change in fecal form; Pi uptake after 33P oral challenge [5]: reducing Pi uptake; Pi uptake after 33P oral challenge in the presence of Ca ([5]; 4 mM Ca, FIG. 1C): significantly reduced Pi uptake; Pi uptake after 33P oral challenge in the presence of glucose/Ca ([5]; 75 mM glucose + 4 mM Ca, FIG. 1B): significantly reduced Pi uptake"
CN1Cc2c(Cl)cc(Cl)cc2[C@H](c2cccc(S(=O)(=O)NCCOCCOCCNC(=O)NCCCN(CCCNC(=O)NCCOCCOCCNS(=O)(=O)c3cccc([C@@H]4CN(C)Cc5c(Cl)cc(Cl)cc54)c3)CCCNC(=O)NCCOCCOCCNS(=O)(=O)c3cccc([C@@H]4CN(C)Cc5c(Cl)cc(Cl)cc54)c3)c2)C1 [compound 77],6.25,7.35,36,17,2,4,79,41,Urine Na % of control ([3]; dose 1 mg/kg): 80%; Fecal Form Score average ([4]; dose 1 mg/kg): 2; Urine P % of control ([6]; dose 1 mg/kg): 82%
CN1Cc2c(Cl)cc(Cl)cc2[C@H](c2cccc(S(=O)(=O)NCCOCCOCCNC(=O)CCC(N)(CCC(=O)NCCOCCOCCNS(=O)(=O)c3cccc([C@@H]4CN(C)Cc5c(Cl)cc(Cl)cc54)c3)CCC(=O)NCCOCCOCCNS(=O)(=O)c3cccc([C@@H]4CN(C)Cc5c(Cl)cc(Cl)cc54)c3)c2)C1 [compound 88],7.07,7.93,22,21,3,5,75,69,Urine Na % of control ([3]; dose 1 mg/kg): 84%; Fecal Form Score average ([4]; dose 1 mg/kg): 1; Urine P % of control ([6]; dose 1 mg/kg): 77%
N=C(N)Nc1nc(-c2ccc(OCCOCCOCCOCCNC(=O)NCCOCCOCCNC(=O)NCCCCNC(=O)NCCOCCOCCNC(=O)NCCOCCOCCOCCOc3ccc(-c4nc(NC(=N)N)nc5ccc(Cl)cc45)cc3)cc2)c2cc(Cl)ccc2n1 [compound 36],7.60,8.00,,85,,1,,86,
CN1Cc2c(Cl)cc(Cl)cc2[C@H](c2cccc(S(=O)(=O)NCCOCCOCCNC(=O)NCCCC(N)(CCCNC(=O)NCCOCCOCCNS(=O)(=O)c3cccc([C@@H]4CN(C)Cc5c(Cl)cc(Cl)cc54)c3)CCCNC(=O)NCCOCCOCCNS(=O)(=O)c3cccc([C@@H]4CN(C)Cc5c(Cl)cc(Cl)cc54)c3)c2)C1 [compound 147],7.00,7.67,40,,2,,32,,
O=C(CCOCCOCCOCCOCCOCCC(=O)NCCOCCOCCOCCNS(=O)(=O)c1ccc(OC2c3ccccc3CC2N2CCCCC2)cc1)NCCOCCOCCOCCNS(=O)(=O)c1ccc(OC2c3ccccc3CC2N2CCCCC2)cc1 (stereo not shown) [compound 53],7.45,7.40,,100,,1,,59,
CN1Cc2c(Cl)cc(Cl)cc2[C@H](c2cccc(S(=O)(=O)NCCOCCOCCNC(=O)NCCC(CCNC(=O)NCCOCCOCCNS(=O)(=O)c3cccc([C@@H]4CN(C)Cc5c(Cl)cc(Cl)cc54)c3)(CCNC(=O)NCCOCCOCCNS(=O)(=O)c3cccc([C@@H]4CN(C)Cc5c(Cl)cc(Cl)cc54)c3)NC(=O)COCC(=O)O)c2)C1 [compound 172],8.20,7.10,26,,2,,42,,
NCCOCCOCCNS(=O)(=O)c1ccc(O[C@H]2c3ccccc3C[C@@H]2N2CCCCC2)cc1 [compound 60],6.35,7.10,,67,,1,,92,
N=C(N)Nc1nc(-c2ccc(OCCOCCOCCOCCN)cc2)c2cc(Cl)ccc2n1 [compound 37],7.50,7.50,,63,,1,,101,
CN1Cc2c(Cl)cc(Cl)cc2[C@@H](c2cccc(S(=O)(=O)NCCOCCOCCNC(=O)NCCCCNC(=O)NCCOCCOCCNS(=O)(=O)c3cccc([C@@H]4CN(C)Cc5c(Cl)cc(Cl)cc54)c3)c2)C1 [Cpd 005],,,,,,,,,"Rat NHE3 pIC50 Prompt (Rat NHE3): <5.0; IC50 (Human NHE3 [1]; Table E5, 001 free base, 002-005 dihydrochloride salt, read-out: Human NHE3 pIC50 Prompt (converted)): > 10 µM; pIC50 Prompt (Human NHE3 [1]): <5.0; UNa (%) ([3]; single oral dose 10 mg/kg): 90 @ 10 mg/kg %; Pi uptake after 33P oral challenge [5]: inactive"
CN1Cc2c(Cl)cc(Cl)cc2[C@H](c2cccc(S(=O)(=O)NCCOCCOCCOCCNC(=O)c3cc(C(=O)NCCOCCOCCOCCNS(=O)(=O)c4cccc([C@@H]5CN(C)Cc6c(Cl)cc(Cl)cc65)c4)cc(C(=O)NCCOCCOCCOCCNS(=O)(=O)c4cccc([C@@H]5CN(C)Cc6c(Cl)cc(Cl)cc65)c4)c3)c2)C1 [compound 56],6.90,7.00,,15,,2,,50,
O=C(O)CN(CCN(CC(=O)O)CC(=O)NCCOCCOCCNS(=O)(=O)c1ccc(O[C@H]2c3ccccc3C[C@@H]2N2CCCCC2)cc1)CC(=O)NCCOCCOCCNS(=O)(=O)c1ccc(O[C@H]2c3ccccc3C[C@@H]2N2CCCCC2)cc1 (racemic) [compound 48],,,,68,,1,,55,IC50 (Rat NHE3): 0.0282 µM; IC50 (Human NHE3 [1]; [7]): 0.0794 µM
CC1Cc2c(Cl)cc(Cl)cc2[C@H](c2cccc(S(=O)(=O)NCCOCCOCCNC(=O)CCC(CCC(=O)NCCOCCOCCNS(=O)(=O)c3cccc([C@@H]4CN(C)Cc5c(Cl)cc(Cl)cc54)c3)(CCC(=O)NCCOCCOCCNS(=O)(=O)c3cccc([C@@H]4CN(C)Cc5c(Cl)cc(Cl)cc54)c3)NC(=O)N[C@@H](CC(=O)O)C(=O)O)c2)C1 (stereo partly shown) [compound 145],,,41,,3,,51,,IC50 (Rat NHE3): 0.0251 µM; IC50 (Human NHE3 [1]; [7]): 0.02 µM
